{
  "source": "patent US5276048A",
  "about": "“4-(1H-pyrrol-1-yl)imidazoles with angiotensin II antagonist activity” (Warner-Lambert Company, priority 1992, dated 1994)",
  "tested_on": "renal hypertensive rats (2-kidney, 1-clip Goldblatt model)",
  "experiment": "blood pressure lowering in renal hypertensive rats (2-kidney, 1-clip Goldblatt model)",
  "format": "in vivo, rat",
  "conditions": "single oral dose of 30 mg/kg",
  "experimental": "Finally, the compounds of Formula I were tested in vivo for blood pressure lowering effects in renal hypertensive rats (2-kidney, 1-clip Goldblatt model) according to the method described by S. Sen, et al, in Hypertension 1:427-434 (1979) and in Clin. Soc. 57:53-6, 1979.\nIllustrative of the in vivo antihypertensive activity for compounds of Formula I is the data for 4-[2-(1-oxo-2,2,2-trifluoroethyl)-1H-pyrrol-1-yl]-2-propyl-1-[(2'-(1H-tetrazol-5-yl)biphen-4-yl)methyl]-1H-imidazole-5-carboxylic acid (Example 14). This compound lowers blood pressure by ≥50 mm Hg and is efficacious for more than 24 hours with a single oral dose of 30 mg/kg in the above rodent model.",
  "data": [
    {"compound": "CCCc1nc(-n2cccc2C(=O)C(F)(F)F)c(C(=O)O)n1Cc1ccc(-c2ccccc2-c2nnn[nH]2)cc1", "note": "[Example 14, 4-[2-(1-Oxo-2,2,2-trifluoroethyl)-1H-pyrrol-1-yl]-2-propyl-1-[(2'-(1H-tetrazol-5-yl)biphen-4-yl)methyl]-1H-imidazole-5-carboxylic acid]", "values": [
      {"measurement": "duration of efficacy", "value": "more than 24 hours"},
      {"measurement": "lowers blood pressure", "value": "≥ 50", "unit": "mm Hg"}
    ]}
  ]
}
